Columns and labels:
LAMP reaction = assay: LAMP amplification activity in the presence of lytic agents / lytic peptides; type: biochemical; conditions: for inhibiting effect on the LAMP amplification efficiency: 5 μM antimicrobial peptide in LAMP reaction
Experimental: Loop-mediated isothermal amplification activity in the presence of different lytic agents. Percentage of amplification activity in the presence of 0.1% polyethylene glycol p-(1,1,3,3-tetramethylbutyl)-phenyl ether, 0.1 mg/ml lysozyme (with or without 0.1% polyethylene glycol p-(1,1,3,3-tetramethylbutyl)-phenyl ether or 1 mM EDTA) or alkaline lysis components.
Loop-mediated isothermal amplification activity in the presence of different lytic peptides. Percentage of amplification activity in the presence of 5 μM antimicrobial peptides.

E. coli = assay: Loop-mediated isothermal amplification directly from E. coli cell lysates after pretreatment of urine spiked E. coli; type: cell-based, Escherichia coli
Experimental: Loop-mediated isothermal amplification directly from E. coli cell lysates. Isothermal amplification after pretreatment of urine spiked E. coli with different lysate preparation techniques. Lysozyme was used at 1 mg/ml concentration, polyethylene glycol p-(1,1,3,3-tetramethylbutyl)-phenyl ether at 1% and peptides at 50 μM concentration for the biological sample treatment. All sample pretreatments were performed for 5 min at RT° C. (except for heat treatment that was incubated at 95° C.).
A biological sample containing E. coli bacteria (urine sample in FIG. 6) is treated with 50 μM antimicrobial peptide belonging to but not limited to cecropin group (Cecropin P1 or SB-37 in FIG. 6) for 5 min at RT° C. 5 μl of the urine sample is added directly to the loop-mediated amplification reaction, so that final reaction volume is 50 μl and final components concentration as follows: 0.2 μM F3 primer, 0.2 μM B3 primer, 1.6 μM BIP primer, 1.6 μM FIP primer, 0.8 μM LF primer, 0.8 μM LB primer, 8 mM MgSO4, 1.4 mM dNTP, 0.8M betain, 20 mM Tris-HCl pH 8.8, 10 mM KCl, 10 mM (NH4)2SO4, 0.1% (v/v) Tween 20 and 16 units of Bsm polymerase.

Molecule	inhibiting effect on the LAMP amplification efficiency (LAMP reaction)	further results
lysozyme	–	effect on the amplification efficiency (LAMP reaction; lysozyme alone, 0.1 mg/ml in LAMP reaction): very modest effect; isothermal amplification efficiency (LAMP reaction; lysozyme in combination with lysis enhancing agents (polyethylene glycol p-(1,1,3,3-tetramethylbutyl)-phenyl ether or EDTA)): significantly reduced
Cecropin P1 (SWLSKTAKKLENSAKKRISEGIAIAIQGGPR; listed as Ascaris suum)	lowest inhibitory effect	inhibiting effect on the LAMP amplification efficiency (LAMP reaction; listed as P1): only mild inhibition; increase of the target DNA available for the isothermal amplification (E. coli; 50 μM peptide, 5 min at RT, urine spiked E. coli, LAMP (FIG. 6)): 6 times; effect of sample pre-treatment on isothermal amplification efficiency (E. coli; urine sample, peptide pre-treatment (FIG. 6)): enhancing effect
MSI-594	quite severe inhibiting effect	–
CC[C@H](C)[C@H](NC(=O)CN)C(=O)NCC(=O)N[C@@H](C)C(=O)N[C@H](C(=O)N[C@@H](CC(C)C)C(=O)N[C@@H](CCCCN)C(=O)N[C@H](C(=O)N[C@@H](CC(C)C)C(=O)N[C@H](C(=O)N[C@H](C(=O)NCC(=O)N[C@@H](CC(C)C)C(=O)N1CCC[C@H]1C(=O)N[C@@H](C)C(=O)N[C@@H](CC(C)C)C(=O)N[C@H](C(=O)N[C@@H](CO)C(=O)N[C@@H](Cc1c[nH]c2ccccc12)C(=O)N[C@H](C(=O)N[C@@H](CCCCN)C(=O)N[C@@H](CCCNC(=N)N)C(=O)N[C@@H](CCCCN)C(=O)N[C@@H](CCCNC(=N)N)C(=O)N[C@@H](CCC(N)=O)C(=O)N[C@@H](CCC(N)=O)C(N)=O)[C@@H](C)CC)[C@@H](C)CC)[C@@H](C)O)[C@@H](C)O)C(C)C)C(C)C [melittin]	inhibiting effect comparable to alkaline lysis components	–
Bombolitin III	only mild inhibition	–
MSI-78	quite severe inhibiting effect	–

Source: patent US20230160021A1, “METHOD FOR THE DETECTION OF A SEXUALLY TRANSMITTED INFECTIOUS PATHOGEN” (SELFDIAGNOSTICS DEUTSCHLAND GMBH, priority 2016, published 2023)
